Here are results for 30 molecules from patent US9783509B2, “Six-membered C-N-linked aryl sulfide derivatives and aryl sulfoxide derivatives as pest conrol agents” (BAYER CROPSCIENCE AKTIENGESELLSCHAFT, priority 2013, dated 2017).

Series [1] can be described thus: log P by reversed-phase HPLC analogously to OECD Guideline 117. Type of series: physicochemical. The method, then: The log P values were determined analogously to OECD Guideline 117 (EC Directive 92/69/EEC) by HPLC (high-performance liquid chromatography) using reversed-phase columns (C 18), by the following methods:
[a] LC-MS determination in the acidic range is effected at pH 2.7 with 0.1% aqueous formic acid and acetonitrile (containing 0.1% formic acid) as eluents with a linear gradient from 10% acetonitrile to 95% acetonitrile; or with 0.025% aqueous trifluoroacetic acid and acetonitrile (containing 0.025% trifluoroacetic acid) as eluents with a linear gradient from 50% acetonitrile to 80% acetonitrile.
[b] LC-MS determination in the neutral range is effected at pH 7.8 with 0.001 molar aqueous ammonium hydrogencarbonate solution and acetonitrile as eluents; linear gradient from 10% acetonitrile to 95% acetonitrile.
Calibration is effected with solutions of a homologous series of unbranched alkan-2-ones (having 3 to 16 carbon atoms) with known log P values (log P values determined on the basis of the retention times by linear interpolation between two successive alkanones).

The test system of series [2] is greenhouse red spider mite (Tetranychus urticae). In words: Tetranychus urticae spray test, OP-resistant (bean leaf discs). Type of series: in vivo. The settings on record: application rate 500 g/ha, after 6 days; for pest or weed control at 500 g/ha: Tetranychus urticae, foliar, 144 h, read-out: efficacy (spider mites killed). The method, then:
Tetranychus urticae—Spray Test, OP-Resistant
Solvent: 78.0 parts by weight of acetone • • 1.5 parts by weight of dimethylformamide
Emulsifier: alkylaryl polyglycol ether
To produce an appropriate active ingredient formulation, 1 part by weight of active ingredient is dissolved using the specified parts by weight of solvent and made up with water containing an emulsifier concentration of 1000 ppm until the desired concentration is attained. To produce further test concentrations, the preparation is diluted with emulsifier-containing water.
Discs of bean leaves (Phaseolus vulgaris) infested by all stages of the greenhouse red spider mite (Tetranychus urticae) are sprayed with an active ingredient formulation of the desired concentration.
After 6 days, the efficacy in % is determined. 100% means that all the spider mites have been killed; 0% means that none of the spider mites have been killed.

The mark [3] stands for this setting: reversed-phase C18 HPLC column, pH 2.7, table column, [a] acidic range, pH 2.7, formic acid (or trifluoroacetic acid)/acetonitrile, read-out: LogP[a].
Where [4] appears, read: reversed-phase C18 HPLC column, pH 7.8, table column, [b] neutral range, pH 7.8, ammonium hydrogencarbonate/acetonitrile, read-out: LogP[b].
Setting [5] is: [a] acidic range, pH 2.7, formic acid (or trifluoroacetic acid)/acetonitrile.
Setting [6] is: [b] neutral range, pH 7.8, ammonium hydrogencarbonate/acetonitrile.
Setting [7] is: reversed-phase C18 HPLC column, pH 2.7, running text, [a] acidic range, pH 2.7, read-out: log P[a].
Setting [8] is: reversed-phase C18 HPLC column, pH 7.8, running text, [b] neutral range, pH 7.8, read-out: log P[b].
The mark [9] stands for this setting: reversed-phase C18 HPLC column, pH 2.7, running text, HCOOH, read-out: log P(HCOOH).

Where two headings read alike, the source gives them in different places.

Consider `Cc1cc(F)c(-n2ncc(=O)n(C)c2=O)cc1[S+]([O-])CC(F)(F)F` (single isomer, unassigned; (-)) [Ex. No. 28, (−)-2-[2-fluoro-4-methyl-5-(2,2,2-trifluoroethylsulphinyl)phenyl]-4-methyl-1,2,4-triazine-3,5-dione], for which the figures for the chromatographic logP in series [1] (setting [3]) and in series [1] (setting [4]) were 1.95 and 1.9, respectively.

On to `Cc1ccc(-n2ncc(=O)n(C)c2=O)cc1[S+]([O-])CC(F)(F)F` (racemic) [compound 24], for which the “LogP[a]” value in series [1] (setting [5]) is 1.84. Further, the “LogP[b]” value in series [1] (setting [6]) turned out to be 1.83. In series [2], the “efficacy (spider mites killed)” value turned out to be 100%.

Take `Cc1ccc(-n2ccc(=O)[nH]c2=O)cc1SCC(F)(F)F` [compound 88]: the “LogP[a]” value in series [1] (setting [5]) was determined as 1.99. The “LogP[b]” value in series [1] (setting [6]) is recorded as 2.05. Moreover, the “efficacy (spider mites killed)” value in series [2] is 90%.

For the molecule `Cc1cc(F)c(-n2c(C)c(C#N)c(=O)[nH]c2=O)cc1[S+]([O-])CC(F)(F)F` (centres unmarked) [Ex. No. 16, 1-{2-Fluoro-4-methyl-5-[(2,2,2-trifluoroethyl)sulphinyl]phenyl}-6-methyl-2,4-dioxo-1,2,3,4-tetrahydropyrimidine-5-carbonitrile], the chromatographic logP was determined as 1.58 in series [1] (setting [3]) and 0.88 in series [1] (setting [4]). In series [2], the pest or weed control at 500 g/ha was found to be 90%.

Turning to `CCCn1c(=O)ccn(-c2cc([S+]([O-])CC(F)(F)F)c(C)cc2F)c1=O` (centres unmarked) [compound 66], in series [1] (setting [5]), the “LogP[a]” value amounted to 2.17. Moreover, the “LogP[b]” value in series [1] (setting [6]) was 2.25. For the same molecule, in series [2], the “efficacy (spider mites killed)” value turned out to be 90%.

For `CCn1c(=O)ccn(-c2ccc(C)c(SCC(F)(F)F)c2)c1=O` [compound 83], the “LogP[a]” value in series [1] (setting [5]) is given as 2.74. In series [1] (setting [6]), the “LogP[b]” value stood at 2.81.

For `Cn1c(=O)cnn(-c2cc([S+]([O-])CC(F)(F)F)c(Cl)cc2Cl)c1=O` (racemic) [compound 13], the “LogP[a]” value in series [1] (setting [5]) turned out to be 2.48. Besides, the “efficacy (spider mites killed)” value in series [2] amounted to 90%.

With `Cc1cc(F)c(-n2c(C)c(C#N)c(=O)[nH]c2=O)cc1SCC(F)(F)F` [Ex. No. 17, 1-{2-Fluoro-4-methyl-5-[(2,2,2-trifluoroethyl)sulphanyl]phenyl}-6-methyl-2,4-dioxo-1,2,3,4-tetrahydropyrimidine-5-carbonitrile], the chromatographic logP in series [1] (setting [7]) and in series [1] (setting [3]) was 2.43 throughout. In series [2], the pest or weed control at 500 g/ha stood at 90%.

As to `CCn1c(=O)ccn(-c2cc(SCC(F)(F)F)c(C)cc2C)c1=O` [compound 96], in series [1] (setting [5]), the “LogP[a]” value came to 2.98. Besides, the “LogP[b]” value in series [1] (setting [6]) was 3.07. The “efficacy (spider mites killed)” value in series [2] came to 100%.

As to `CCOC(=O)c1cn(-c2cc(SCC(F)(F)F)c(C)cc2F)c(=O)n(C2CC2)c1=O` [Ethyl 3-cyclopropyl-1-{2-fluoro-4-methyl-5-[(2,2,2-trifluoroethyl)sulphanyl]phenyl}-2,4-dioxo-1,2,3,4-tetrahydropyrimidine-5-carboxylate], the chromatographic logP in series [1] (setting [7]) was determined as 3.07; in series [1] (setting [8]) it was 3.02.

As for `Cc1cc(C)c(-n2ncc(=O)n(CC3CC3)c2=O)cc1SCC(F)(F)F` [compound 34], the “LogP[a]” value in series [1] (setting [5]) was found to be 3.94. In series [1] (setting [6]), the “LogP[b]” value is 3.87. Further, the “efficacy (spider mites killed)” value in series [2] is recorded as 100%.

For `CCO/C=C/C(=O)NC(=O)Nc1cc(SCC(F)(F)F)c(C)cc1F` [(2E)-3-Ethoxy-N-({2-fluoro-4-methyl-5-[(2,2,2-trifluoroethyl)sulphanyl]phenyl}carbamoyl)-acrylamide], the chromatographic logP in series [1] (setting [7]) worked out at 3.78; in series [1] (setting [8]), 3.7.

Turning to `Cc1cc(F)c(-n2nc(C(=O)O)c(=O)[nH]c2=O)cc1SCC(F)(F)F` [2-{2-Fluoro-4-methyl-5-[(2,2,2-trifluoroethyl)sulphanyl]phenyl}-3,5-dioxo-2,3,4,5-tetrahydro-1,2,4-triazine-6-carboxylic acid], the chromatographic logP in series [1] (setting [7]) worked out at 1.79.

For the molecule `Cc1cc(C)c(-n2ccc(=O)[nH]c2=O)cc1SCC(F)(F)F` [compound 89], the “LogP[a]” value in series [1] (setting [5]) was 2.18. For the same molecule, in series [1] (setting [6]), the “LogP[b]” value amounted to 2.25. For the same molecule, the “efficacy (spider mites killed)” value in series [2] is 100%.

Take `Cc1cc(F)c(-n2ncc(=O)[nH]c2=O)cc1SCC(F)(F)F` [2-{2-Fluoro-4-methyl-5-[(2,2,2-trifluoroethyl)sulphanyl]phenyl}-1,2,4-triazine-3,5(2H,4H)-dione]: the chromatographic logP in series [1] (setting [7]) stood at 2.45.

In the case of `Cc1cc(C)c([S+]([O-])CC(F)(F)F)cc1-n1ncc(=O)n(CC2CC2)c1=O` (racemic) [compound 37], the “LogP[a]” value in series [1] (setting [5]) stood at 2.77. The “LogP[b]” value in series [1] (setting [6]) is on record as 2.73. In addition, the “efficacy (spider mites killed)” value in series [2] is recorded as 100%.

For `Cc1ccc(-n2ccc(=O)[nH]c2=O)cc1[S+]([O-])CC(F)(F)F` (centres unmarked) [compound 91], in series [1] (setting [5]), the “LogP[a]” value is recorded as 1.20. Further, the “LogP[b]” value in series [1] (setting [6]) turned out to be 1.19. For the same molecule, in series [2], the “efficacy (spider mites killed)” value was 100%.

On to `CCc1cc(CC)c(SCC(F)(F)F)cc1NC(C)=O` [N-{2,4-Diethyl-5-[(2,2,2-trifluoroethyl)sulphanyl]phenyl}acetamide], for which the chromatographic logP in series [1] (setting [9]) is 3.07.

As to `Cc1cc(F)c(-n2ncc(=O)n(CC(F)(F)F)c2=O)cc1[S+]([O-])CC(F)(F)F` (single isomer, unassigned) [compound 51], in series [1] (setting [5]), the “LogP[a]” value is given as 2.62. Moreover, the “LogP[b]” value in series [1] (setting [6]) was 2.57.

Take `Cc1cc(C)c(-n2ncc(=O)n(CC(F)(F)F)c2=O)cc1SCC(F)(F)F` [Ex. No. 7]: the “LogP[a]” value in series [1] (setting [5]) was found to be 3.74. Besides, the “efficacy (spider mites killed)” value in series [2] is 90%.

For the molecule `Cc1cc(C)c([S+]([O-])CC(F)(F)F)cc1-n1ncc(=O)n(C(C)C)c1=O` (racemic) [compound 38], in series [1] (setting [5]), the “LogP[a]” value turned out to be 2.69. Further, in series [1] (setting [6]), the “LogP[b]” value is 2.67. In series [2], the “efficacy (spider mites killed)” value is given as 100%.

Take `CCOC(=O)NC(=O)c1nn(-c2cc(SCC(F)(F)F)c(C)cc2F)c(=O)[nH]c1=O` [Ethyl [(2-{2-fluoro-4-methyl-5-[(2,2,2-trifluoroethyl)sulphanyl]phenyl}-3,5-dioxo-2,3,4,5-tetrahydro-1,2,4-triazin-6-yl)carbonyl]arbamate]: the chromatographic logP in series [1] ([a] acidic range, pH 2.7, read-out: log P[a]) was 2.5.

With `Cc1cc(C)c(-n2ncc(=O)n(CC#N)c2=O)cc1SCC(F)(F)F` [compound 40], the “LogP[a]” value in series [1] (setting [5]) came out at 3.1. For the same molecule, in series [1] (setting [6]), the “LogP[b]” value is recorded as 3.05. The “efficacy (spider mites killed)” value in series [2] turned out to be 100%.

For the molecule `CCc1cc(CC)c(SSc2cc(NC(C)=O)c(CC)cc2CC)cc1NC(C)=O` [N,N′-[Disulphanediylbis(4,6-diethylbenzene-3,1-diyl)]diacetamide], the chromatographic logP in series [1] (setting [9]) came out at 4.02.

Take `CCn1c(=O)cnn(-c2cc([S+]([O-])CC(F)(F)F)c(C)cc2C)c1=O` (racemic) [compound 35]: the “LogP[a]” value in series [1] (setting [5]) is 2.31. In addition, the “LogP[b]” value in series [1] (setting [6]) came out at 2.27. Also, in series [2], the “efficacy (spider mites killed)” value turned out to be 100%.

As to `CCc1cc(CC)c([S+]([O-])CC(F)(F)F)cc1-n1c(C)c(C#N)c(=O)[nH]c1=O` (centres unmarked) [Ex. No. 18, 1-{2,4-Diethyl-5-[(2,2,2-trifluoroethyl)sulphinyl]phenyl}-6-methyl-2,4-dioxo-1,2,3,4-tetrahydropyrimidine-5-carbonitrile], the chromatographic logP in series [1] (setting [7]) was found to be 2.15; in series [1] (setting [3]), 2.15; in series [1] (setting [8]), 1.55; in series [1] (setting [4]) it was 1.55. Moreover, the pest or weed control at 500 g/ha in series [2] is 90%.

In the case of “1-{2,4-Diethyl-5-[(2,2,2-trifluoroethyl)sulphinyl]phenyl}-6-methyl-2,4-dioxo-1,2,3,4-tetrahydropyrimidine-5-carbonitrile”, the “log P[a]” value in series [1] (pH 2.7) stood at 3.16.

Consider `Cc1cc(F)c(-n2ccc(=O)n(CC(C)C)c2=O)cc1SCC(F)(F)F` [compound 81], for which the “LogP[a]” value in series [1] (setting [5]) is 3.56. In series [1] (setting [6]), the “LogP[b]” value came to 3.62. Moreover, in series [2], the “efficacy (spider mites killed)” value was determined as 90%.

In the case of `Cc1cc(F)c(-n2ncc(=O)[nH]c2=O)cc1[S+]([O-])CC(F)(F)F` (centres unmarked) [Ex. No. 1, 2-{2-Fluoro-4-methyl-5-[(2,2,2-trifluoroethyl)sulphinyl]phenyl}-1,2,4-triazine-3,5(2H,4H)-dione], the chromatographic logP in series [1] (setting [7]) and in series [1] (setting [3]) was 1.58 throughout.

With `Cc1cc(C)c([S+]([O-])CC(F)(F)F)cc1-n1ncc(=O)n(CC(F)(F)F)c1=O` (single isomer, unassigned) [compound 46], the “LogP[a]” value in series [1] (setting [5]) stood at 2.72. For the same molecule, the “LogP[b]” value in series [1] (setting [6]) turned out to be 2.66.
